Test: Pilot study: irregular vaginal bleeding
Type: in vivo, post-menopausal women
Conditions: 2.5 mg tibolone per day added to 20 mg tamoxifen per day
Description: The women, all below the age of 65 years, were postmenopausal for at least three years at the time of diagnosis. Their follicle stimulating hormone (FSH) levels were greater than 40 IU/L and their estradiol (E2) levels were below 20 pg/mL.

## C#C[C@]1(O)CC[C@H]2[C@@H]3[C@H](C)CC4=C(CCC(=O)C4)[C@H]3CC[C@@]21C [Tibolone, (7α, 17α)-17-hydroxy-7-methyl-19-nor-17-pregn-5(10)-en-20-yn-3-one]
  effect on irregular bleeding: minimal effect
